Experimental data from US20260285850A1, “SUBSTITUTED OXAZOLIDINONES AND IMIDAZOLINONES AS HERBICIDES” (FMC CORPORATION, priority 2023, published 2026).

Assays:
Format in all cases: in vivo
[1] = tested on: ryegrass, Italian (italian ryegrass, Lolium multiflorum); assay: Test A postemergence application, visual injury rating 0-100; settings: Postemergence, 10 days; for Ryegrass, Italian plant response rating (0 to 100 scale): 0 is no effect, 100 is complete control
Method in brief: (§1)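 Grow plants in loam soil blended with sand. Apply formulated compound (non-phytotoxic solvent, surfactant) as a directed soil spray before emergence, or to plants at the one- to two-leaf stage after emergence. Hold in greenhouse 10 days, then rate injury visually versus untreated controls on a 0-100 scale.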

[2] = tested on: foxtail, giant (giant foxtail, Setaria faberi); assay: as above; settings: 10 days; for Foxtail, Giant plant response rating (0 to 100 scale): 0 is no effect, 100 is complete control
Method in brief: as §1

[3] = tested on: palmer (palmer amaranth, palmer pigweed, Amaranthus palmeri); assay: as above; settings: Postemergence, 10 days; for Amaranth, Palmer / Pigweed, Palmer plant response rating (0 to 100 scale): 0 is no effect, 100 is complete control
Method in brief: as §1

[4] = tested on: horseweed (Erigeron canadensis); assay: as above; settings: Postemergence, 1000 g ai/ha, 0 to 100 scale, 10 days
Method in brief: as §1

[5] = tested on: blackgrass (Alopecurus myosuroides); assay: as above; settings: Postemergence, 10 days; for Blackgrass plant response rating (0 to 100 scale): 0 is no effect, 100 is complete control
Method in brief: as §1

kochia (Bassia scoparia) [6] = assay: as above; settings: Postemergence, 10 days; for Kochia plant response rating (0 to 100 scale): 0 is no effect, 100 is complete control
Method in brief: as §1

[7] = tested on: ragweed (common ragweed, Ambrosia artemisiifolia); assay: as above; settings: Postemergence, 10 days; for Ragweed plant response rating (0 to 100 scale): 0 is no effect, 100 is complete control
Method in brief: as §1

[8] = tested on: barnyardgrass (Echinochloa crus-galli); assay: as above; settings: Postemergence, 10 days; for Barnyardgrass plant response rating (0 to 100 scale): 0 is no effect, 100 is complete control
Method in brief: as §1

[9] = tested on: galium (catchweed bedstraw, Galium aparine); assay: as above; settings: Postemergence, 10 days; for Galium plant response rating (0 to 100 scale): 0 is no effect, 100 is complete control
Method in brief: as §1

[10] = tested on: barnyardgrass (Echinochloa crusgalli); assay: Test B flooded paddy test, visual plant response rating 0-100; settings: 250 g ai/ha, Flood, applied to paddy water, evaluated after 13 days
Method in brief: (§2)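 Compounds applied to standing paddy water (3 cm above soil, maintained for the test duration) on 2-leaf-stage plants; visual rating vs controls at 13 days, greenhouse.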

[11] = tested on: ducksalad (Heteranthera limosa); assay: as above; settings: 250 g ai/ha, Flood, applied to paddy water, evaluated after 13 days
Method in brief: as §2

rice (Oryza sativa) = assay: as above; settings: 250 g ai/ha, Flood, applied to paddy water, evaluated after 13 days
Method in brief: as §2

[12] = tested on: sedge, umbrella (small-flower umbrella sedge, Cyperus difformis); assay: as above; settings: 250 g ai/ha, Flood, applied to paddy water, evaluated after 13 days
Method in brief: as §2

[13] = tested on: ryegrass, Italian (italian ryegrass, Lolium multiflorum); assay: Test A preemergence soil spray, visual injury rating 0-100; settings: 10 days, 0 = no effect, 100 = complete control
Method in brief: as §1

[14] = tested on: foxtail, giant (giant foxtail, Setaria faberi); assay: as above; settings: 10 days, 0 = no effect, 100 = complete control
Method in brief: as §1

[15] = tested on: palmer (palmer amaranth, palmer pigweed, Amaranthus palmeri); assay: as above; settings: 10 days, 0 = no effect, 100 = complete control
Method in brief: as §1

[16] = tested on: blackgrass (Alopecurus myosuroides); assay: as above; settings: 10 days, 0 = no effect, 100 = complete control
Method in brief: as §1

kochia (Bassia scoparia) [17] = assay: as above; settings: 10 days, 0 = no effect, 100 = complete control
Method in brief: as §1

[18] = tested on: ragweed (common ragweed, Ambrosia artemisiifolia); assay: as above; settings: 10 days, 0 = no effect, 100 = complete control
Method in brief: as §1

[19] = tested on: barnyardgrass (Echinochloa crus-galli); assay: as above; settings: 10 days, 0 = no effect, 100 = complete control
Method in brief: as §1

corn (Zea mays) [20] = assay: Test A postemergence application, visual injury rating 0-100; settings: Postemergence, 10 days, 0 is no effect, 100 is complete control
Method in brief: as §1

[21] = tested on: oat, wild (wild oat, Avena fatua); assay: as above; settings: Postemergence, 10 days, 0 is no effect, 100 is complete control
Method in brief: as §1

soybean (Glycine max) [22] = assay: as above; settings: Postemergence, 10 days, 0 is no effect, 100 is complete control
Method in brief: as §1

[23] = tested on: wheat (Triticum aestivum); assay: as above; settings: Postemergence, 10 days, 0 is no effect, 100 is complete control
Method in brief: as §1

corn (Zea mays) [24] = assay: Test A preemergence soil spray, visual injury rating 0-100; settings: 10 days, 0 = no effect, 100 = complete control
Method in brief: as §1

[25] = tested on: oat, wild (wild oat, Avena fatua); assay: as above; settings: 10 days, 0 = no effect, 100 = complete control
Method in brief: as §1

soybean (Glycine max) [26] = assay: as above; settings: 10 days, 0 = no effect, 100 = complete control
Method in brief: as §1

[27] = tested on: wheat (Triticum aestivum); assay: as above; settings: 10 days, 0 = no effect, 100 = complete control
Method in brief: as §1

## CSCCOC(=O)[C@@H]1C=C[C@H](NC(=O)C2(C)CN(c3cc(F)cc(F)c3)C(=O)O2)C1 (stereo partly drawn) [Compound 48, 2-(Methylthio)ethyl (1S,4R)-4-[[[3-(3,5-difluorophenyl)-5-methyl-2-oxo-5-oxazolidinyl]carbonyl]amino]-2-cyclopentene-1-carboxylate]
[1]; 1000 g ai/ha, 0 to 100 scale
  Ryegrass, Italian plant response rating: 90
[2]; 1000 g ai/ha, 0 to 100 scale
  Foxtail, Giant plant response rating: 90
[3]; 1000 g ai/ha, 0 to 100 scale
  Amaranth, Palmer plant response rating: 90
[4]
  Horseweed plant response rating: 70
[5]; 1000 g ai/ha, 0 to 100 scale
  Blackgrass plant response rating: 100
Kochia (Bassia scoparia) [6]; 1000 g ai/ha, 0 to 100 scale
  Kochia plant response rating: 70
[7]; 1000 g ai/ha, 0 to 100 scale
  Ragweed plant response rating: 70
[8]; 1000 g ai/ha, 0 to 100 scale
  Barnyardgrass plant response rating: 90
[9]; 1000 g ai/ha, 0 to 100 scale
  Galium plant response rating: 80
[10]
  Plant response rating, Barnyardgrass (0 to 100 scale, 0 is no effect and 100 is complete control): 70
[11]
  Plant response rating, Ducksalad (0 to 100 scale, 0 is no effect and 100 is complete control): 70
Rice (Oryza sativa)
  Plant response rating, Rice (0 to 100 scale, 0 is no effect and 100 is complete control): 65
[12]
  Plant response rating, Sedge, Umbrella (0 to 100 scale, 0 is no effect and 100 is complete control): 80
[13]; 1000 g ai/ha
  Ryegrass, Italian plant response rating (0 to 100 scale): 100
[14]; 1000 g ai/ha
  Foxtail, Giant plant response rating (0 to 100 scale): 100
[15]; 1000 g ai/ha
  Amaranth, Palmer / Pigweed, Palmer plant response rating (0 to 100 scale): 100
[16]; 1000 g ai/ha
  Blackgrass plant response rating (0 to 100 scale): 90
Kochia (Bassia scoparia) [17]; 1000 g ai/ha
  Kochia plant response rating (0 to 100 scale): 100
[18]; 1000 g ai/ha
  Ragweed plant response rating (0 to 100 scale): 90
[19]; 1000 g ai/ha
  Barnyardgrass plant response rating (0 to 100 scale): 100

## CC1(C(=O)NC2C=CC(C(=O)OCCS(C)(=O)=O)C2)CN(c2cc(F)cc(F)c2)C(=O)O1 (stereo not shown) [Compound 49]
Corn (Zea mays) [20]; 125 g ai/ha
  Corn plant response rating (0 to 100 scale): 100
Corn (Zea mays) [20]; 500 g ai/ha
  Corn plant response rating (0 to 100 scale): 100
[1]; 125 g ai/ha
  Ryegrass, Italian plant response rating (0 to 100 scale): 80
[1]; 500 g ai/ha
  Ryegrass, Italian plant response rating (0 to 100 scale): 90
[2]; 125 g ai/ha
  Foxtail, Giant plant response rating (0 to 100 scale): 90
[2]; 500 g ai/ha
  Foxtail, Giant plant response rating (0 to 100 scale): 90
[3]; 125 g ai/ha
  Amaranth, Palmer / Pigweed, Palmer plant response rating (0 to 100 scale): 90
[3]; 500 g ai/ha
  Amaranth, Palmer / Pigweed, Palmer plant response rating (0 to 100 scale): 100
[5]; 125 g ai/ha
  Blackgrass plant response rating (0 to 100 scale): 90
[5]; 500 g ai/ha
  Blackgrass plant response rating (0 to 100 scale): 100
[21]; 125 g ai/ha
  Oat, Wild plant response rating (0 to 100 scale): 90
[21]; 500 g ai/ha
  Oat, Wild plant response rating (0 to 100 scale): 90
Kochia (Bassia scoparia) [6]; 125 g ai/ha
  Kochia plant response rating (0 to 100 scale): 70
Kochia (Bassia scoparia) [6]; 500 g ai/ha
  Kochia plant response rating (0 to 100 scale): 80
Soybean (Glycine max) [22]; 125 g ai/ha
  Soybean plant response rating (0 to 100 scale): 90
Soybean (Glycine max) [22]; 500 g ai/ha
  Soybean plant response rating (0 to 100 scale): 90
[7]; 125 g ai/ha
  Ragweed plant response rating (0 to 100 scale): 70
[7]; 500 g ai/ha
  Ragweed plant response rating (0 to 100 scale): 70
[8]; 125 g ai/ha
  Barnyardgrass plant response rating (0 to 100 scale): 100
[8]; 500 g ai/ha
  Barnyardgrass plant response rating (0 to 100 scale): 100
[23]; 125 g ai/ha
  Wheat plant response rating (0 to 100 scale): 90
[23]; 500 g ai/ha
  Wheat plant response rating (0 to 100 scale): 90
[9]; 125 g ai/ha
  Galium plant response rating (0 to 100 scale): 70
[9]; 500 g ai/ha
  Galium plant response rating (0 to 100 scale): 80
[10]
  Plant response rating, Barnyardgrass (0 to 100 scale, 0 is no effect and 100 is complete control): 80
[11]
  Plant response rating, Ducksalad (0 to 100 scale, 0 is no effect and 100 is complete control): 90
Rice (Oryza sativa)
  Plant response rating, Rice (0 to 100 scale, 0 is no effect and 100 is complete control): 55
[12]
  Plant response rating, Sedge, Umbrella (0 to 100 scale, 0 is no effect and 100 is complete control): 95
Corn (Zea mays) [24]; 125 g ai/ha
  Corn plant response rating (0 to 100 scale): 80
Corn (Zea mays) [24]; 500 g ai/ha
  Corn plant response rating (0 to 100 scale): 90
[13]; 125 g ai/ha
  Ryegrass, Italian plant response rating (0 to 100 scale): 80
[13]; 500 g ai/ha
  Ryegrass, Italian plant response rating (0 to 100 scale): 100
[14]; 125 g ai/ha
  Foxtail, Giant plant response rating (0 to 100 scale): 90
[14]; 500 g ai/ha
  Foxtail, Giant plant response rating (0 to 100 scale): 100
[15]; 125 g ai/ha
  Amaranth, Palmer plant response rating (0 to 100 scale): 90
[15]; 500 g ai/ha
  Amaranth, Palmer plant response rating (0 to 100 scale): 100
[16]; 125 g ai/ha
  Blackgrass plant response rating (0 to 100 scale): 70
[16]; 500 g ai/ha
  Blackgrass plant response rating (0 to 100 scale): 80
[25]; 125 g ai/ha
  Oat, Wild plant response rating (0 to 100 scale): 80
[25]; 500 g ai/ha
  Oat, Wild plant response rating (0 to 100 scale): 90
Kochia (Bassia scoparia) [17]; 125 g ai/ha
  Kochia plant response rating (0 to 100 scale): 90
Kochia (Bassia scoparia) [17]; 500 g ai/ha
  Kochia plant response rating (0 to 100 scale): 100
Soybean (Glycine max) [26]; 125 g ai/ha
  Soybean plant response rating (0 to 100 scale): 80
Soybean (Glycine max) [26]; 500 g ai/ha
  Soybean plant response rating (0 to 100 scale): 90
[18]; 125 g ai/ha
  Ragweed plant response rating (0 to 100 scale): 40
[18]; 500 g ai/ha
  Ragweed plant response rating (0 to 100 scale): 90
[19]; 125 g ai/ha
  Barnyardgrass plant response rating (0 to 100 scale): 90
[19]; 500 g ai/ha
  Barnyardgrass plant response rating (0 to 100 scale): 100
[27]; 125 g ai/ha
  Wheat plant response rating (0 to 100 scale): 90
[27]; 500 g ai/ha
  Wheat plant response rating (0 to 100 scale): 100
